{"source": "patent US20220218781A1", "about": "“COMPOSITION FOR ENHANCEMENT OF BIOAVAILABILITY OF PHYTOCHEMICALS AND PROCESS FOR PREPARATION THEREOF” (OLENE LIFE SCIENCES PRIVATE LIMITED, priority 2019, published 2022)", "experiment": "Comparative self-dispersion study in water", "format": "physicochemical", "details": "without mechanical stirring, test product vs. standard unformulated reference product", "description": "A comparative self-dispersion study was carried out between the ‘Composition of Example 1 (Test product)’ and ‘Standard unformulated lutein extract (Reference product)’.\nA comparative self-dispersion study was carried out between the ‘Composition of Example 13 (Test product)’ and ‘Standard unformulated Boswellia extract (Reference product)’.\nA comparative self-dispersion study was carried out between the ‘Composition of Example 16 (Test product)’ and ‘Standard unformulated Pepper extract (Reference product)’.\nA comparative self dispersion study was carried out between the ‘Composition of Example 22 (Test product)’ and ‘Standard unformulated Coenzyme Q10 Extract (Reference product)’.\nA comparative self dispersion study was carried out between the ‘Composition of Example 25 (Test product)’ and ‘Standard unformulated Palmitoylethanolamide (Reference product)’. The dispersion profile is given in FIG. 7A (test product) and FIG. 7B (reference product)."}
{"smiles": "COC1=C(OC)C(=O)C(C/C=C(\\C)CC/C=C(\\C)CC/C=C(\\C)CC/C=C(\\C)CC/C=C(\\C)CC/C=C(\\C)CC/C=C(\\C)CC/C=C(\\C)CC/C=C(\\C)CCC=C(C)C)=C(C)C1=O", "note": "[Coenzyme Q10]", "values": [{"measurement": "self-dispersion profile", "result": "non-dispersible"}]}
